The values below come from patent publication US7601746B2 (Shionogi & Co., Ltd., priority 2003, dated 2009).

The target of this test is T1, human TPO receptor (hTPOR) (Homo sapiens, UniProt P40238).
T1 construct: expressed in transfected cells; host or cells: BaF-B03 (murine IL-3 dependent cell line)
T1 sequence (P40238 26-635): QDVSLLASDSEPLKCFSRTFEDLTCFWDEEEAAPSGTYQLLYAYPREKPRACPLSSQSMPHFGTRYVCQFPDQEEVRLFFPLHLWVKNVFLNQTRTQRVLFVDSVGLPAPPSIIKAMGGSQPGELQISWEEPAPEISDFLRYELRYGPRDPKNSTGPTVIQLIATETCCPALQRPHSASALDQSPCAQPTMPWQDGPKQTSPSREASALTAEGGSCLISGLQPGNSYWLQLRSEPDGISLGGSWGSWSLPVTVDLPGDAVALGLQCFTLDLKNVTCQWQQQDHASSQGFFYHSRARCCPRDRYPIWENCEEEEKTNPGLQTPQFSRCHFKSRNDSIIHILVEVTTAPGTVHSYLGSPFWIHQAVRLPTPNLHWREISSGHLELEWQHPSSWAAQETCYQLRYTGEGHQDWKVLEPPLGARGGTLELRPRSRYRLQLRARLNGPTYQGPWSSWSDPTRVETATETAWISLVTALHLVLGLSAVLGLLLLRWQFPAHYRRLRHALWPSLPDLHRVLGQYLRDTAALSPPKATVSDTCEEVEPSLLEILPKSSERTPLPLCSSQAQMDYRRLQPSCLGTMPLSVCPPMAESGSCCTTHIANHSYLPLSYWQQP
In words: Thrombopoietic activity: proliferation of TPO dependent BaF/hTPOR cells (WST-1, absorbance at 450 nm). The test is classed as cell-based. The following applies: 20 h + 4 h WST-1, ED50 = half concentration of the concentration showing the maximum thrombopoietic activity, Table 1. The text has this: The TPO dependent BaF/hTPOR cell line which was established by introducing human TPO receptor (hTPOR) into BaF-B03 cells according to Collins et al (J. Cell. Physiol., 137:293-298 (1988)) was used to test the thrombopoietic activity of the present compound. The DNA sequences and encoded peptide sequences for human hTPOR have been described by Vigon et al (Proc. Natl. Acad. Sci. USA, 89:5640-5644 (1992)). TPO dose not have any ability to support proliferation of interlukin-3 dependent parental cell line BaF-B03. BAF/hTPOR cells were maintained in RPMI medium and WEHI-3B conditioned medium as a source of murine interleukin-3 (IL-3). These cells were washed and resuspended in RPMI medium without a source of murine IL-3 and seeded into each well of 96-well microtiter plates at a density of 5×10^4 cells per well in the absence or presence of various concentration of hTPO or the present compound. After incubation at 37° C. for 20 hours in the 5% CO2 incubator, 10% WST-1 reagent (Takara Biomedicals, Japan) was added to each wells and the cells were further incubated for 4 hours. The absorbance at 450 nm was measured. Tables 1 and 2 exemplify the ED50 for tested compounds of the present invention, wherein the ED50 is the half concentration of the concentration showing the maximum thrombopoietic activity.
For orientation: Tetrazolium dyes change colour on reduction, which living cells bring about.
What is called EC50 is the concentration that produces a half-maximal response. As to `CCCCCC(OC)c1cccc(-c2csc(NC(=O)c3cc(F)c(C=C(C)C(=O)O)c(F)c3)n2)c1F` (stereo not shown) [Compound B1, 3-(2,6-difluoro-4-{4-[2-fluoro-3-(1-methyloxyhexyl)phenyl]thiazol-2-ylcarbamoyl}phenyl)-2-methylacrylic acid], the EC50 is 2.2 nM.

As to `CC(=Cc1c(F)cc(C(=O)Nc2nc(-c3cccc(CCC(C)(C)C)c3F)cs2)cc1F)C(=O)O` [Compound B2, 3-(2,6-difluoro-4-{4-[3-(3,3-dimethylbutyl)-2-fluorophenyl]thiazol-2-ylcarbamoyl}phenyl)-2-methylacrylic acid], the EC50 was found to be 4 nM.

Consider `CCOC(c1cccc(-c2csc(NC(=O)c3cc(F)c(C=C(C)C(=O)O)c(F)c3)n2)c1F)C1CCCCC1` (stereo not shown) [Compound B6, 3-(4-{4-[3-(1-cyclohexyl-1-ethyloxymethyl)-2-fluorophenyl]thiazol-2-ylcarbamoyl}-2,6-difluorophenyl)-2-methylacrylic acid], for which the EC50 came to 2.4 nM.

As to `COC(c1cccc(-c2csc(NC(=O)c3cc(F)c(C=C(C)C(=O)O)c(F)c3)n2)c1F)(C(C)C)C(C)C` [Compound B7, 3-(2,6-difluoro-4-{4-[2-fluoro-3-(2,4-dimethyl-3-methyloxy-3-pentyl)phenyl]thiazol-2-ylcarbamoyl}phenyl)-2-methylacrylic acid], the EC50 turned out to be 3.6 nM.

For the compound `CCCC(CCC)(OC)c1cccc(-c2csc(NC(=O)c3cc(F)c(C=C(C)C(=O)O)c(F)c3)n2)c1F` [Compound B8], the EC50 came out at 4 nM.

For the compound `CCCCCCCCCC(OC)c1cccc(-c2csc(NC(=O)c3cc(F)c(C=C(C)C(=O)O)c(F)c3)n2)c1F` (stereo not shown) [Compound B9, 3-(2,6-difluoro-4-{4-[2-fluoro-3-(1-methyloxydecyl)phenyl]thiazol-2-ylcarbamoyl}phenyl)-2-methylacrylic acid], the EC50 was determined as 1.6 nM.

`CCOC(c1cccc(-c2csc(NC(=O)c3cc(F)c(C=C(C)C(=O)O)c(F)c3)n2)c1F)C(C)(C)C` (stereo not shown) [Compound B10, 3-(2,6-difluoro-4-{4-[3-(1-ethyloxy-2,2-dimethylpropyl)-2-fluorophenyl]thiazol-2-ylcarbamoyl}phenyl)-2-methylacrylic acid]: the EC50 came to 1.9 nM.

Take `COC(CCC(C)C)c1cccc(-c2csc(NC(=O)c3cc(F)c(C=C(C)C(=O)O)c(F)c3)n2)c1F` (stereo not shown) [Compound B11, 3-(2,6-difluoro-4-{4-[2-fluoro-3-(1-methyloxy-4-methylpentyl)phenyl]thiazol-2-ylcarbamoyl}phenyl)-2-methylacrylic acid]: the EC50 was 0.81 nM.

As for `CCC(CCCc1cccc(-c2csc(NC(=O)c3cc(F)c(C=C(C)C(=O)O)c(F)c3)n2)c1F)OC` (stereo not shown) [Compound B12, 3-(2,6-difluoro-4-{4-[2-fluoro-3-(4-methyloxyhexyl)phenyl]thiazol-2-ylcarbamoyl}phenyl)-2-methylacrylic acid], the EC50 came to 2.1 nM.

For `COC(c1cccc(-c2csc(NC(=O)c3cc(F)c(C=C(C)C(=O)O)c(F)c3)n2)c1F)C(C)(C)C` (stereo not shown) [Compound B13, 3-(2,6-difluoro-4-{4-[2-fluoro-3-(1-methyloxy-2,2-dimethylpropyl)phenyl]thiazol-2-ylcarbamoyl}phenyl)-2-methylacrylic acid], the EC50 was found to be 1 nM.

With `CCCCCOC(c1cccc(-c2csc(NC(=O)c3cc(F)c(C=C(C)C(=O)O)c(F)c3)n2)c1F)C1CCCCC1` (stereo not shown) [Compound B14, 3-(4-{4-[3-(1-cyclohexyl-1-n-pentyloxymethyl)-2-fluorophenyl]thiazol-2-ylcarbamoyl}-2,6-difluorophenyl)-2-methylacrylic acid], the EC50 is 0.73 nM.

`CCCCCOC(c1cccc(-c2csc(NC(=O)c3cc(F)c(C=C(C)C(=O)O)c(F)c3)n2)c1F)C(C)(C)C` (stereo not shown) [Compound B15, 3-(2,6-difluoro-4-{4-[3-(2,2-dimethyl-1-n-pentyloxypropyl)-2-fluorophenyl]thiazol-2-ylcarbamoyl}phenyl)-2-methylacrylic acid]: the EC50 is 0.73 nM.

Regarding `CCCCCOC(CCSC)c1cccc(-c2csc(NC(=O)c3cc(F)c(C=C(C)C(=O)O)c(F)c3)n2)c1F` (stereo not shown) [Compound B16, 3-(2,6-difluoro-4-{4-[2-fluoro-3-(3-methylthio-1-n-pentyloxypropyl)phenyl]thiazol-2-ylcarbamoyl}phenyl)-2-methylacrylic acid], the EC50 turned out to be 0.77 nM.

As for `CCCCCOC(CC)c1cccc(-c2csc(NC(=O)c3cc(F)c(C=C(C)C(=O)O)c(F)c3)n2)c1F` (stereo not shown) [Compound B19, 3-(2,6-difluoro-4-{4-[2-fluoro-3-(1-n-pentyloxypropyl)phenyl]thiazol-2-ylcarbamoyl}phenyl)-2-methylacrylic acid], the EC50 worked out at 0.73 nM.

Turning to `CC(=Cc1c(F)cc(C(=O)Nc2nc(-c3cccc(CCCOCC(C)(C)C)c3F)cs2)cc1F)C(=O)O` [Compound B20], the EC50 was 0.81 nM.

For the compound `CCOCCCCOC(c1cccc(-c2csc(NC(=O)c3cc(F)c(C=C(C)C(=O)O)c(F)c3)n2)c1F)C1CCCCC1` (stereo not shown) [Compound B21, 3-[4-(4-{3-[1-cyclohexyl-1-(4-ethyloxybutyloxy)methyl]-2-fluorophenyl]thiazol-2-ylcarbamoyl}-2,6-difluorophenyl)-2-methylacrylic acid], the EC50 was determined as 0.67 nM.

Consider `CCOCCCCOC(CC)c1cccc(-c2csc(NC(=O)c3cc(F)c(C=C(C)C(=O)O)c(F)c3)n2)c1F` (stereo not shown) [Compound B22, 3-[2,6-difluoro-4-(4-{3-[1-(4-ethyloxybutyloxy)propyl]-2-fluorophenyl}thiazol-2-ylcarbamoyl)phenyl]-2-methylacrylic acid], for which the EC50 came out at 1.14 nM.

With `CCCCCCC(OC)c1cccc(-c2csc(NC(=O)c3cc(F)c(C=C(C)C(=O)O)c(F)c3)n2)c1F` (stereo not shown) [Compound B23, 3-(2,6-difluoro-4-{4-[2-fluoro-3-(1-methyloxyheptyl)phenyl]thiazol-2-ylcarbamoyl}phenyl)-2-methylacrylic acid], the EC50 amounted to 1.23 nM.

For the compound `CCCC(OCC)c1cccc(-c2csc(NC(=O)c3cc(F)c(C=C(C)C(=O)O)c(F)c3)n2)c1F` (stereo not shown) [Compound B24, 3-(2,6-difluoro-4-{4-[3-(1-ethyloxybutyl)-2-fluorophenyl]thiazol-2-ylcarbamoyl}phenyl)-2-methylacrylic acid], the EC50 was determined as 1.97 nM.

As for `CCCCCCCC(OC)c1cccc(-c2csc(NC(=O)c3cc(F)c(C=C(C)C(=O)O)c(F)c3)n2)c1F` (stereo not shown) [Compound B25, 3-(2,6-difluoro-4-{4-[2-fluoro-3-(1-methyloxyoctyl)phenyl]thiazol-2-ylcarbamoyl}phenyl)-2-methylacrylic acid], the EC50 came to 0.93 nM.

As to `CCCCCOC(CCCC)c1cccc(-c2csc(NC(=O)c3cc(F)c(C=C(C)C(=O)O)c(F)c3)n2)c1F` (stereo not shown) [Compound B26, 3-(2,6-difluoro-4-{4-[2-fluoro-3-(1-n-pentyloxypentyl)phenyl]thiazol-2-ylcarbamoyl}phenyl)-2-methylacrylic acid], the EC50 came out at 0.39 nM.

Regarding `CCCCC(OCC)c1cccc(-c2csc(NC(=O)c3cc(F)c(C=C(C)C(=O)O)c(F)c3)n2)c1F` (stereo not shown) [Compound B27, 3-(2,6-difluoro-4-{4-[3-(1-ethyloxypentyl)-2-fluorophenyl]thiazol-2-ylcarbamoyl}phenyl)-2-methylacrylic acid], the EC50 is 0.75 nM.

On to `CCCCCCCCC(OC)c1cccc(-c2csc(NC(=O)c3cc(F)c(C=C(C)C(=O)O)c(F)c3)n2)c1F` (stereo not shown) [Compound B28, 3-(2,6-difluoro-4-{4-[2-fluoro-3-(1-methyloxynonyl)phenyl]thiazol-2-ylcarbamoyl}phenyl)-2-methylacrylic acid], for which the EC50 turned out to be 0.79 nM.

For the compound `CCCCCCCCOC(C)c1cccc(-c2csc(NC(=O)c3cc(F)c(C=C(C)C(=O)O)c(F)c3)n2)c1F` (stereo not shown) [Compound B30, 3-(2,6-difluoro-4-{4-[2-fluoro-3-(1-n-octyloxyethyl)phenyl]thiazol-2-ylcarbamoyl}phenyl)-2-methylacrylic acid], the EC50 was 0.78 nM.

Turning to `CCCCCOC(C)c1cccc(-c2csc(NC(=O)c3cc(F)c(C=C(C)C(=O)O)c(F)c3)n2)c1F` (stereo not shown) [Compound B31, 3-(2,6-difluoro-4-{4-[2-fluoro-3-(1-n-pentyloxyethyl)phenyl]thiazol-2-ylcarbamoyl}phenyl)-2-methylacrylic acid], the EC50 was 0.85 nM.
